Reference: patent US11603366B2, “Crystalline form and B crystalline form of pyrazine-2(1H)-ketone compound and preparation method thereof” (ZHANGZHOU PIEN TZE HUANG PHARMACEUTICAL CO., LTD., priority 2019, dated 2023)

Experiment: Pharmacokinetic evaluation in mice, single intragastric administration
Assay type: in vivo, CD-1 mice (male)
Conditions: 300 mpk, male CD-1 mice, plasma
Method: Experimental Purposes: To Test the Pharmacokinetics of the Compound in Mice
CD-1 mice (male), vehicle (0.5% (w/v) methylcellulose 0.5% (v/v) Tween 80 aqueous solution), trifluoroacetate salt of compound 0027.
Animals in groups 1 and 2 were given 5 mg/mL and 30 mg/mL compound by single intragastric administration, respectively, with a dose volume of 10 mL/kg.
The animals were weighed before administration, and the administration volume was calculated according to the body weight.
Whole blood samples (30 μL) were collected at specified times (0.25, 0.5, 1, 2, 4, 6, 8, 24 hours) by saphenous vein collection and the actual time of collection was recorded in the test record. The acceptable error for the collection time points was ±1 minute for time points within 1 hour of administration and ±5% of the theoretical time for other time points.
All blood samples were immediately transferred to labeled commercial centrifuge tubes containing K2-EDTA. After blood samples were collected, the blood samples were centrifugated at 4° C. and 3200 rpm for 10 minutes, and the supernatant plasma was aspirated, and then quickly put into dry ice at a temperature of −20° C. or lower for LC-MS/MS analysis. And the pharmacokinetic parameters were calculated, and experimental result: See Table 5.

COc1cc(OC)c(Cl)c(-c2nc(-c3nc(-c4cn(C)nc4C)cnc3N)cn(C)c2=O)c1
Tlast: 24.0 h
